From BindingDB's records for patent US20230416268 (Enanta Pharmaceuticals, 2023) come the findings set out here.

The experiment deals with T1, 17-beta-hydroxysteroid dehydrogenase 13 (Homo sapiens, UniProt Q7Z5P4).
T1 sequence (Q7Z5P4 whole entry): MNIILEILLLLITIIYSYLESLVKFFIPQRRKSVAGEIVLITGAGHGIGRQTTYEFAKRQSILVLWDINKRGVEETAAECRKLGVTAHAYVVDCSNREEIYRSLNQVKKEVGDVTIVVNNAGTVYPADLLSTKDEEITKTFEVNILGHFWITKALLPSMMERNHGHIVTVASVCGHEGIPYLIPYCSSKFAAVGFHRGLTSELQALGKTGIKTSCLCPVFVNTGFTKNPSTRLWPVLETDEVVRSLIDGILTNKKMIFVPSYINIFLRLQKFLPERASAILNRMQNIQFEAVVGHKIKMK
In words: 17β-HSD13 Rapid-Fire Mass Spectrometry Assay. The source says:
Recombinant human 17β-HSD13 was expressed and purified from sf9 cells at Charles River Labs (Saffron Walden, UK). Leukotriene B4 (Catalog #71160-24-2) and 12-oxoleukotriene B4 (Catalog #20140) were purchased from Cayman Chemicals (Ann Arbor, MI). NAD+ (Catalog #N8285), BSA (Catalog #A7030), DMSO (Catalog #D2650), and Tween-20 (Catalog #11332465001) were purchased from Sigma (St. Louis, MO). Formic acid (Catalog #28905) was from ThermoFisher Scientific and 384 deep well PP microplates (Catalog #784261) were from Greiner Bio-One. In a typical IC50 assay performed in a 384w PP microplate, test compounds (0-100 μM) were incubated with HSD17B13 (80 nM), LTB4 (10 μM), and NAD+ (0.5 mM) in 10 μL assay buffer (20 mM Tris (pH 7.5), BSA (0.005%), and Tween-20 (0.01%)) at RT for 3 h. The assays were quenched by adding 20 μL of 0.15% aqueous formic acid and the plates were frozen at −80° C. RF/MS analysis was performed at PureHoney Technologies (Billerica, MA) on a RapidFire RF300 system (Agilent Technologies, Inc.) coupled to an API 4000 triple quadrupole mass spectrometer (Sciex) equipped with Agilent RapidFire cartridge type A (C4). […] Leukotriene B4 (335.3) and 12-oxoLeukotriene B4 (333.3) SRM transitions were optimized with Discovery Quant software and extracted ion counts for these analytes were determined.

Regarding `COc1ccc(-c2nc3sc4c(O)cccc4c3c(=O)n2CCNCc2cnc[nH]2)c(C2CC2)c1` [US20230416268, Example 31], the 50% inhibitory concentration (IC50) (commonly the concentration at which inhibition is half-maximal) was less than 100 nM.
